Assay results published in the supplement of paper PMC8741786.
Values after ≈ are worked out from the molar mass of the structure shown.

Tests used:
Test in all cases: minimum inhibitory concentration (ETEST)
Neisseria bacilliformis = conditions: isolate id (sample isolate): Co000780_5; population: general population; antibiotic use in previous 6 months: No
Summary of the method: (§1)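 Minimum inhibitory concentration, recorded in mg/L, was read from antibiotic gradient strips (ETEST), and off-scale values are the strip limits. The strips were applied on GC agar held 24 h at 36.5 °C in 5-7% CO2. Isolates came from oropharyngeal swabs of men who have sex with men and of staff in Belgium, cultured on Columbia blood agar and modified Thayer-Martin agar for 48 h at 35–37 °C in 5% CO2 and typed to species by mass spectrometry.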

Neisseria cinerea = conditions: population: general population, antibiotic use in previous 6 months: No
Summary of the method: as §1

Neisseria elongata = conditions: population: general population, antibiotic use in previous 6 months: No
Summary of the method: as §1

Neisseria gonorrhoeae = conditions: isolate id (sample isolate): 19113052_3; population: MSM; antibiotic use in previous 6 months: No
Summary of the method: as §1

Neisseria mucosa/macacae = test system: Neisseria mucosa/macacae
Summary of the method: as §1

[1] = isolate id (sample isolate): Co000769_3
[2] = isolate id (sample isolate): Co000776_4
[3] = isolate id (sample isolate): Co000776_5
[4] = isolate id (sample isolate): Co000782_1
[5] = isolate id (sample isolate): Co000767_3
[6] = isolate id (sample isolate): Co000780_1
[7] = isolate id (sample isolate): Co000783_4
[8] = isolate id (sample isolate): 19041762_2, population: MSM, antibiotic use in previous 6 months: Yes
[9] = isolate id (sample isolate): 19051904_1, population: MSM, antibiotic use in previous 6 months: Yes
[10] = isolate id (sample isolate): 19052394_2, population: MSM, antibiotic use in previous 6 months: Yes
[11] = isolate id (sample isolate): 19062968_1, population: MSM, antibiotic use in previous 6 months: Yes
[12] = isolate id (sample isolate): 19081774_2, population: MSM, antibiotic use in previous 6 months: No
[13] = isolate id (sample isolate): 19111422_4, population: MSM, antibiotic use in previous 6 months: No
[14] = isolate id (sample isolate): 19111422_7, population: MSM, antibiotic use in previous 6 months: No
[15] = isolate id (sample isolate): Co000770_5, population: general population, antibiotic use in previous 6 months: No
[16] = isolate id (sample isolate): Co000771_4, population: general population, antibiotic use in previous 6 months: No
[17] = isolate id (sample isolate): Co000772_3, population: general population, antibiotic use in previous 6 months: No
[18] = isolate id (sample isolate): Co000773_3, population: general population, antibiotic use in previous 6 months: No
[19] = isolate id (sample isolate): Co000779_1, population: general population, antibiotic use in previous 6 months: No
[20] = isolate id (sample isolate): Co000783_3, population: general population, antibiotic use in previous 6 months: No
[21] = isolate id (sample isolate): Co000783_6, population: general population, antibiotic use in previous 6 months: No
[22] = isolate id (sample isolate): Co000787_3, population: general population, antibiotic use in previous 6 months: No
[23] = isolate id (sample isolate): Co000788_1, population: general population, antibiotic use in previous 6 months: No
[24] = isolate id (sample isolate): Co000788_4, population: general population, antibiotic use in previous 6 months: No

Row | Structure (SMILES) | minimum inhibitory concentration (Neisseria bacilliformis) [µg/mL] | minimum inhibitory concentration (Neisseria cinerea; [1]) [µg/mL] | minimum inhibitory concentration (Neisseria cinerea; [2]) [µg/mL] | minimum inhibitory concentration (Neisseria cinerea; [3]) [µg/mL] | minimum inhibitory concentration (Neisseria cinerea; [4]) [µg/mL] | minimum inhibitory concentration (Neisseria elongata; [5]) [µg/mL] | minimum inhibitory concentration (Neisseria elongata; [6]) [µg/mL] | minimum inhibitory concentration (Neisseria elongata; [7]) [µg/mL] | minimum inhibitory concentration (Neisseria gonorrhoeae) [µg/mL] | minimum inhibitory concentration (Neisseria mucosa/macacae; [8]) [µg/mL] | minimum inhibitory concentration (Neisseria mucosa/macacae; [9]) [µg/mL] | minimum inhibitory concentration (Neisseria mucosa/macacae; [10]) [µg/mL] | minimum inhibitory concentration (Neisseria mucosa/macacae; [11]) [µg/mL] | minimum inhibitory concentration (Neisseria mucosa/macacae; [12]) [µg/mL] | minimum inhibitory concentration (Neisseria mucosa/macacae; [13]) [µg/mL] | minimum inhibitory concentration (Neisseria mucosa/macacae; [14]) [µg/mL] | minimum inhibitory concentration (Neisseria mucosa/macacae; [15]) [µg/mL] | minimum inhibitory concentration (Neisseria mucosa/macacae; [16]) [µg/mL] | minimum inhibitory concentration (Neisseria mucosa/macacae; [17]) [µg/mL] | minimum inhibitory concentration (Neisseria mucosa/macacae; [18]) [µg/mL] | minimum inhibitory concentration (Neisseria mucosa/macacae; [19]) [µg/mL] | minimum inhibitory concentration (Neisseria mucosa/macacae; [20]) [µg/mL] | minimum inhibitory concentration (Neisseria mucosa/macacae; [21]) [µg/mL] | minimum inhibitory concentration (Neisseria mucosa/macacae; [22]) [µg/mL] | minimum inhibitory concentration (Neisseria mucosa/macacae; [23]) [µg/mL] | minimum inhibitory concentration (Neisseria mucosa/macacae; [24]) [µg/mL]
1 | CC[C@H]1OC(=O)[C@H](C)[C@@H](O[C@H]2C[C@@](C)(OC)[C@@H](O)[C@H](C)O2)[C@H](C)[C@@H](O[C@@H]2O[C@H](C)C[C@H](N(C)C)[C@H]2O)[C@](C)(O)C[C@@H](C)CN(C)[C@H](C)[C@@H](O)[C@]1(C)O [azithromycin] | 2 (≈ 2.67 µM) | 1 (≈ 1.34 µM) | 24 (≈ 32 µM) | 32 (≈ 42.7 µM) | 2 (≈ 2.67 µM) | 0.5 (≈ 0.668 µM) | 0.75 (≈ 1 µM) | 0.38 (≈ 0.507 µM) | 0.125 (≈ 0.167 µM) | 3 (≈ 4.01 µM) | 2 (≈ 2.67 µM) | 4 (≈ 5.34 µM) | 16 (≈ 21.4 µM) | 24 (≈ 32 µM) | 1.5 (≈ 2 µM) | 1 (≈ 1.34 µM) | 3 (≈ 4.01 µM) | 6 (≈ 8.01 µM) | 4 (≈ 5.34 µM) | 2 (≈ 2.67 µM) | 2 (≈ 2.67 µM) | 6 (≈ 8.01 µM) | 32 (≈ 42.7 µM) | 4 (≈ 5.34 µM) | 2 (≈ 2.67 µM) | 4 (≈ 5.34 µM)
2 | CO/N=C(\C(=O)N[C@@H]1C(=O)N2C(C(=O)O)=C(CSc3nc(=O)c(O)nn3C)CS[C@H]12)c1csc(N)n1 [ceftriaxone] | 1.5 (≈ 2.7 µM) | < 0.016 | < 0.016 | < 0.016 | < 0.016 | 0.19 (≈ 0.343 µM) | 0.047 (≈ 0.0847 µM) | 0.023 (≈ 0.0415 µM) | < 0.016 | 0.032 (≈ 0.0577 µM) | 0.047 (≈ 0.0847 µM) | 0.032 (≈ 0.0577 µM) | 0.064 (≈ 0.115 µM) | 0.094 (≈ 0.169 µM) | 0.032 (≈ 0.0577 µM) | 0.032 (≈ 0.0577 µM) | 0.047 (≈ 0.0847 µM) | 0.064 (≈ 0.115 µM) | 0.032 (≈ 0.0577 µM) | 0.032 (≈ 0.0577 µM) | 0.125 (≈ 0.225 µM) | 0.032 (≈ 0.0577 µM) | 0.032 (≈ 0.0577 µM) | 0.094 (≈ 0.169 µM) | 0.032 (≈ 0.0577 µM) | 0.032 (≈ 0.0577 µM)
3 | O=C(O)c1cn(C2CC2)c2cc(N3CCNCC3)c(F)cc2c1=O [ciprofloxacin] | 0.125 (≈ 0.377 µM) | 0.006 (≈ 0.0181 µM) | 0.032 (≈ 0.0966 µM) | 0.032 (≈ 0.0966 µM) | 0.012 (≈ 0.0362 µM) | 0.004 (≈ 0.0121 µM) | 0.004 (≈ 0.0121 µM) | 0.023 (≈ 0.0694 µM) | 2 (≈ 6.04 µM) | 0.016 (≈ 0.0483 µM) | 0.25 (≈ 0.754 µM) | 0.012 (≈ 0.0362 µM) | 6 (≈ 18.1 µM) | 0.016 (≈ 0.0483 µM) | 0.016 (≈ 0.0483 µM) | 0.016 (≈ 0.0483 µM) | 0.023 (≈ 0.0694 µM) | 0.016 (≈ 0.0483 µM) | 0.006 (≈ 0.0181 µM) | 0.006 (≈ 0.0181 µM) | 0.032 (≈ 0.0966 µM) | 0.012 (≈ 0.0362 µM) | 0.023 (≈ 0.0694 µM) | 0.064 (≈ 0.193 µM) | 0.012 (≈ 0.0362 µM) | 0.012 (≈ 0.0362 µM)
